# Patent publication US20220264910A1, “COMPOSITIONS COMPRISING AMINO ACIDS AND A FURTHER COMPONENT FOR THE SUPPLY OF AMINO ACIDS TO A MONOGASTRIC ANIMAL SUCH AS A HUMAN OR A PIG” (VETAGRO INTERNATIONAL S.R.L., priority 2019, published 2022)
# Details: pig, in vivo, po
smiles,measurement,value
C/C=C/C=C/C(=O)O [sorbic acid],presence of the marker in the various intestinal tracts,present in the various intestinal tracts only when administered in encapsulated form in the lipid matrix
COc1cc(C=O)ccc1O [vanillin],presence of the marker in the various intestinal tracts,present in the various intestinal tracts only when administered in encapsulated form in the lipid matrix
